In brackets after ≈: the same amount, converted by molar mass. Read-outs that look alike come from different tables or passages of the source.
Key:
[1] = literature, in words; cited from earlier work
[2] = literature, in words; cited from earlier work; remark: listed apart in the source
[3] = tested on: histamine release; details: literature, in words; cited from earlier work
[4] = target: C-kinase (protein kinase C); experiment: C-Kinase inhibitory activity test; type: biochemical; details: enzyme activity inhibited 50%
[5] = tested on: HeLaS3 cells; experiment: HeLaS3 cell growth inhibition test; type: cell-based; details: Homo sapiens, read-out: cell growth inhibitory activity IC50, HeLaS3
Description: (§1) Compound (I) was examined for C-kinase inhibitory activity and cell growth inhibitory activity by the following method.
(§2) MCF 7 cells (4.5×10^4 cells/ml) prepared in RPMI 1640 medium containing 10% fetal calf serum, 10 μg/ml insulin and 10^-8 M estradiol are put into wells of a 96-well microtiter plate in the amount of 0.1 ml per each well. After incubation at 37° C. overnight in CO2 -incubator, 0.05 ml each of a test sample appropriately diluted with the culture medium is added to each well. In the case of contact for 72 hours, the cells are further cultured in CO2 -incubator, and then the culture supernatant is removed and the wells are washed once with PBS(-). Thereafter, 0.1 ml of fresh medium is added to each well, followed by culturing at 37° C. for 72 hours in CO2 -incubator. After the culture supernatant is removed, 0.1 ml of the culture medium containing 0.02% Neutral Red is added to each well, followed by culturing at 37° C. for one hour in CO2 -incubator, whereby the cells are stained. Then, the culture supernatant is removed and the cells are washed once with physiological saline. The pigment is extracted with 0.001N HCl/30% ethanol and absorption is measured at 550 nm with a microplate reader. By comparing the absorption of intact cells with those of the cells treated with a test compound in known concentrations, the concentration of the test compound at which growth of the cells is inhibited 50% is calculated as IC50.
(3) HeLaS3 cell growth inhibition test:
HeLaS3 cells (3×10^4 cells/ml) prepared in MEM medium containing 10% fetal calf serum and 2 mM glutamine are put into wells of a 96-well microtiter plate in the amount of 0.1 ml per each well.
Thereafter, the test is carried out in the same manner as in (1).

[6] = tested on: PC-10 cells; experiment: PC-10 cell growth inhibition test; type: cell-based; details: Homo sapiens, read-out: cell growth inhibitory activity IC50, PC-10
Description: as §1, §2
(2) PC-10 cell growth inhibition test:
PC-10 cells (5×10^4 cells/ml) prepared in MEM medium containing 10% fetal calf serum and 2 mM glutamine are put into wells of a 96-well microtiter plate in the amount of 0.1 ml per each well.
Thereafter, the test is carried out in the same manner as in the MCF 7 cell growth inhibition test.

[7] = tested on: C-kinase; details: literature, in words; cited from earlier work
[8] = tested on: MCF 7 cells; experiment: MCF 7 cell growth inhibition test; type: cell-based; details: Homo sapiens, read-out: cell growth inhibitory activity IC50, MCF-7
Description: as §1
(1) MCF 7 cell growth inhibition test:
as §2

[9] = tested on: COLO320DM cells; experiment: COLO320DM cell growth inhibition test; type: cell-based; details: Homo sapiens, COLO 320DM, read-out: cell growth inhibitory activity IC50, COLO320DM
Description: as §2, with “After” for “MCF 7 cells (4.5×10^4 cells/ml) prepared in RPMI 1640 medium containing 10% fetal calf serum, 10 μg/ml insulin and 10^-8 M estradiol are put into wells of a 96-well microtiter plate in the amount of 0.1 ml per each well. After”, “reader.” for “reader. By comparing the absorption of intact cells with those of the cells treated with a test compound in known concentrations, the concentration of the test compound at which growth of the cells is inhibited 50% is calculated as IC50.”
(4) COLO320DM cell growth inhibition test:
Thereafter, the test is carried out in the same manner as in (1) except that the cells are counted with a microcell counter.

[10] = HeLa S3, HeLaS3 cells, contact for 72 hours
[11] = PC10, PC-10 cells, contact for 72 hours
[12] = MCF7, MCF-7 cells, contact for 72 hours
[13] = COLO320DM cells, cells counted with a microcell counter

Structure (SMILES) | C-Kinase inhibitory activity IC50 [4] [µg/mL] | IC50 [5, 10] [µg/mL] | IC50 [6, 11] [µg/mL] | further results
COC(=O)[C@@]1(O)C[C@H]2O[C@]1(C)n1c3ccccc3c3c4c(c5c6ccccc6n2c5c31)C(=O)NC4 (relative stereo) [Compound K-252] | – | – | – | anti-allergic activity [1]: anti-allergic activity; antibacterial activity [2]: antibacterial substances; activity to inhibit histamine release [3]: activity to inhibit histamine release
C[C@]12O[C@H](C[C@]1(O)C(N)=O)n1c3ccccc3c3c4c(c5c6ccccc6n2c5c31)CNC4=O (relative stereo) [Compound 2] | 0.003 | 0.22 (≈ 0.486 µM) | 0.03 (≈ 0.0663 µM) | –
C[C@]12O[C@H](C[C@]1(O)C(=O)NO)n1c3ccccc3c3c4c(c5c6ccccc6n2c5c31)CNC4=O (relative stereo) [Compound 1] | 0.005 | 0.59 (≈ 1.26 µM) | 0.14 (≈ 0.299 µM) | –
C[C@]12O[C@H](C[C@]1(O)CN=[N+]=[N-])n1c3ccccc3c3c4c(c5c6ccccc6n2c5c31)CNC4=O (relative stereo) [Compound 29] | 0.06 | 0.44 (≈ 0.947 µM) | 0.71 (≈ 1.53 µM) | –
CN[C@@H]1C[C@H]2O[C@@](C)([C@@H]1OC)n1c3ccccc3c3c4c(c5c6ccccc6n2c5c31)C(=O)NC4 [Staurosporine] | – | – | – | antibacterial activity [2]: antibacterial activity
CC12OC(CC1O)n1c3ccccc3c3c4c(c5c6ccccc6n2c5c31)CNC4=O (centres unmarked) [Compound 48] | 0.022 | – | – | IC50 ([5]; HeLa S3, 72 h): 0.72 µg/mL (≈ 1.76 µM); IC50 ([6]; PC10, 72 h): 0.48 µg/mL (≈ 1.17 µM)
CCCCNc1ccc(C(=O)OCCN(C)C)cc1 [tetracaine] | – | – | – | C-kinase inhibitory activity [7]: low
COC(=O)[C@@]1(O)C[C@H]2O[C@]1(C)n1c3ccccc3c3c4c(c5c6cc(O)ccc6n2c5c31)C(=O)NC4 (relative stereo) [Compound 15] | 0.009 | – | – | IC50 ([5]; HeLa S3, 72 h): 0.48 µg/mL (≈ 0.993 µM); IC50 ([6]; PC10, 72 h): 0.11 µg/mL (≈ 0.228 µM)
C[C@]12O[C@H](C[C@]1(O)CN)n1c3ccccc3c3c4c(c5c6ccccc6n2c5c31)CNC4=O (relative stereo) [Compound 30] | 0.015 | 0.07 (≈ 0.16 µM) | 0.04 (≈ 0.0912 µM) | –
CN1CCN(CCCN2c3ccccc3Sc3ccc(C(F)(F)F)cc32)CC1 [trifluoperazine] | – | – | – | C-kinase inhibitory activity [7]: low
CC12OC(CC13CNC(=O)O3)n1c3ccccc3c3c4c(c5c6ccccc6n2c5c31)CNC4=O (centres unmarked) [Compound 57] | 0.02 | 0.04 (≈ 0.0861 µM) | 0.1 (≈ 0.215 µM) | IC50 [8, 12]: 0.15 µg/mL (≈ 0.323 µM); IC50 [9, 13]: 0.37 µg/mL (≈ 0.797 µM)
CC12OC(CC13COS(=O)O3)n1c3ccccc3c3c4c(c5c6ccccc6n2c5c31)CNC4=O (centres unmarked) [Compound 55] | 0.038 | 0.14 (≈ 0.288 µM) | 0.64 (≈ 1.32 µM) | –
CN(C)CCCN1c2ccccc2Sc2ccc(Cl)cc21 [chlorpromazine] | – | – | – | C-kinase inhibitory activity [7]: low
COC(=O)[C@@]1(O)C[C@H]2O[C@]1(C)n1c3ccccc3c3c4c(c5c6cc(Br)ccc6n2c5c31)C(=O)NC4 (relative stereo) [Compound 7] | 0.028 | 0.15 (≈ 0.275 µM) | 0.76 (≈ 1.39 µM) | –
CSCC1(O)CC2OC1(C)n1c3ccccc3c3c4c(c5c6ccccc6n2c5c31)C(=O)NC4 (centres unmarked) [Compound 45] | 0.11 | 0.55 (≈ 1.17 µM) | > 1 | –
CC12OC(CC13CNC(=S)O3)n1c3ccccc3c3c4c(c5c6ccccc6n2c5c31)CNC4=O (centres unmarked) [Compound 58] | 0.017 | 0.28 (≈ 0.583 µM) | 0.69 (≈ 1.44 µM) | –
C[C@]12O[C@H](C[C@]1(O)C(=O)NCCO)n1c3ccccc3c3c4c(c5c6ccccc6n2c5c31)CNC4=O (relative stereo) [Compound 3] | 0.018 | 0.95 (≈ 1.91 µM) | 0.68 (≈ 1.37 µM) | –
C[S+]([O-])CC1(O)CC2OC1(C)n1c3ccccc3c3c4c(c5c6ccccc6n2c5c31)C(=O)NC4 (centres unmarked) [Compound 46] | 0.06 | > 1 | 0.27 (≈ 0.556 µM) | –
CC12OC(CC13COC(=S)O3)n1c3ccccc3c3c4c(c5c6ccccc6n2c5c31)CNC4=O (centres unmarked) [Compound 54] | 0.015 | 0.28 (≈ 0.581 µM) | 0.11 (≈ 0.228 µM) | IC50 [8, 12]: 1 µg/mL (≈ 2.08 µM); IC50 [9, 13]: 0.08 µg/mL (≈ 0.166 µM)
C[C@]12O[C@H](C[C@]1(O)CO)n1c3ccccc3c3c4c(c5c6ccccc6n2c5c31)CNC4=O (relative stereo) [Compound 20] | 0.02 | – | – | IC50 ([5]; HeLa S3, 72 h): 0.07 µg/mL (≈ 0.159 µM); IC50 ([8]; MCF7, 72 h): 0.55 µg/mL (≈ 1.25 µM); IC50 ([6]; PC10, 72 h): 0.11 µg/mL (≈ 0.25 µM); IC50 [9]: 0.05 µg/mL (≈ 0.114 µM)
COC(=O)[C@@]1(O)C[C@H]2O[C@]1(C)n1c3ccccc3c3c4c(c5c6ccccc6n2c5c31)C(=O)N(Cl)C4 (relative stereo) [Compound 5] | 0.034 | 0.51 (≈ 1.02 µM) | 0.84 (≈ 1.67 µM) | –
CCOC(=O)[C@@]1(O)C[C@H]2O[C@]1(C)n1c3ccccc3c3c4c(c5c6ccccc6n2c5c31)C(=O)NC4 (relative stereo) [Compound 4] | 0.13 | 0.6 (≈ 1.25 µM) | > 1 | –
ClCCN(Cc1ccccc1)Cc1ccccc1 [dibenamine] | – | – | – | C-kinase inhibitory activity [7]: low
NCCCCCCNS(=O)(=O)c1cccc2c(Cl)cccc12 [Compound W-7, N-(6-aminohexy)-5-chloro-1-naphthalenesulfonamide] | – | – | – | C-kinase inhibitory activity [7]: low
C[C@]12O[C@H](C[C@]1(O)C(=O)O)n1c3ccccc3c3c4c(c5c6ccccc6n2c5c31)CNC4=O (relative stereo) [KT-5556] | – | – | – | antibacterial activity [2]: antibacterial substances; activity to inhibit histamine release [3]: activity to inhibit histamine release
